Values of other authors in US20090246278A1, “USE OF ESSENTIAL OILS TO REDUCE BENZODIAZEPINE REQUIREMENTS DURING MEDICAL PROCEDURES” (priority 2008, published 2009).

Tested on: GABA receptors
Details: effects antagonized by flumazenil

| SMILES | GABA-ergic properties |
| --- | --- |
| CC1=CCC2CC1C2(C)C (stereo not drawn) [α-pinene, alpha-pinene] | exert GABA-ergic properties |
| C=C1CCC2CC1C2(C)C (stereo not drawn) [β-pinene, beta-pinene] | exert GABA-ergic properties |
